Results from patent publication US20230233576A1, “ECLITASERTIB FOR USE IN TREATING CONDITIONS INVOLVING SYSTEMIC HYPERINFLAMMATORY RESPONSE” (priority 2020, published 2023).

Tested on: adult participants hospitalized for severe COVID-19
Assay: Phase 1b severe COVID-19 study: oxygenation (SpO2, SpO2/FiO2 ratio, days without oxygen support, VFD, RFFD)
Assay type: in vivo, human
Conditions: for Change from baseline in SpO2/FiO2 ratio, point estimate / Change from baseline in SpO2/FiO2 ratio, adjusted treatment difference RIPK1 Inhibitor vs placebo: MMRM, LOCF; for median change from baseline in SpO2/FiO2 ratio: observed data; for median change in SpO2/FiO2 ratio from baseline: LOCF imputation
Experimental: This study was a multinational, multi-center, double-blind, 2:1 randomized (RIPK1 Inhibitor to placebo), placebo-controlled study in adult participants hospitalized for severe COVID-19.
Participants were assigned to treatment according to randomization list. Six RIPK1 Inhibitor 50 mg capsules (300 mg) or matching placebo capsules were administered orally in fasting or fed conditions twice a day (BID). For participants intubated with feeding tube in place, the IMPs were given as suspension by feeding tube.
The main secondary clinical assessments endpoints included: • Time to 50% decrease from baseline in CRP level • Time to improvement of oxygenation as measured by oxygen saturation≥92% breathing room air over 48 hours or until discharge • Change from baseline in SPO2/FiO2 ratio at Day 7
Other secondary clinical assessment endpoints included: • Number of Days without need for oxygen support and alive (oxygen saturation≥92% breathing room air) up to Day 28 • Numbers of Ventilator-free days and alive up to Day 28 • Change from baseline in markers of inflammation (White blood cell count, differential blood lymphocytes, neutrophil to lymphocyte ratio, IL-6) and D-Dimer at Day 7 and EOT • Incidence of Deaths up to Day 28 • Percentage of participants receiving thrombolytic treatment up to Day 28 • Percentage of participants receiving vasopressor treatment up to Day 28 • Numbers of Respiratory Failure-Free Days (RFFD) and alive up to Day 28
The time to improvement of oxygenation as measured by oxygen saturation>92% breathing room air over 48 hours or until discharge was estimated using the Kaplan-Meier approach and treatment arms were compared in an exploratory fashion using the log-rank test.
Presence of SO2≥92% without use of any supplemental oxygen device on two consecutive days (earliest occurrence) or at day of discharge was considered as event. If such criterion was not met, time to event was censored at the time point of the last observation of SpO2 collected. For participants who died during the study without experiencing the event, similar LOCF approached was used and a sensitivity analysis was performed as described in Section 1.7.1.1.2.1.
The number and percentage of participants who experience the event without applying censoring rules was reported at Days 3, 5, 7, 15 and 28.
The analysis of the change from baseline in SpO2/FiO2 ratio was based on a MMRM model fitted on observed values for Days 2, 3, 4, 5, 6, 7 and 15. The model included fixed effects for participant-specific SpO2/FiO2 ratio at baseline, respective visit, treatment group, and visit-by-treatment group interaction, and random effects for sites. Repeated measurements for each visit were taken within participant assuming an unstructured covariance pattern within treatment group.
The LS means for the difference in change from baseline at Day 7 between RIPK1 Inhibitor and placebo were provided, jointly with the corresponding 90% confidence interval.
The point estimate of the change from baseline in SpO2/FiO2 ratio and the difference between treatment groups and two-sided 90% confidence interval value were reported for Day 2 to 7 and EOT as described above. Time profile plots of point estimates of the change from baseline (+/−90% Cis) were presented by treatment group.
Missing values for the change from baseline in SpO2/FiO2 ratio were replaced following the LOCF approach, regardless if occurring before or after discontinuation/discharge/death. In case no LOCF could be identified (e.g., no post-baseline value prior to Day 2 to replace a missing Day 2 result), the missing value was not imputed. A sensitivity analysis was performed by repeating the above analysis without any imputation of missing values.

[1] = 600 mg, Baseline, Efficacy population
[2] = 600 mg, Day 2, Efficacy population
[3] = 600 mg, Day 3, Efficacy population
[4] = 600 mg, Day 4, Efficacy population
[5] = 600 mg, Day 5, Efficacy population
[6] = 600 mg, Day 6, Efficacy population
[7] = 600 mg, Day 7, Efficacy population
[8] = 600 mg, Day 8, Efficacy population
[9] = 600 mg, Day 9, Efficacy population
[10] = 600 mg, Day 10, Efficacy population
[11] = 600 mg, Day 11, Efficacy population
[12] = 600 mg, Day 12, Efficacy population
[13] = 600 mg, Day 13, Efficacy population
[14] = 600 mg, Day 14, Efficacy population
[15] = 600 mg, Day 15, Efficacy population
[16] = 600 mg, up to Day 28, Efficacy population

CN1C(=O)[C@@H](NC(=O)c2nnc(Cc3ccccc3)[nH]2)COc2cccnc21 [RIPK1 Inhibitor, (S)-5-benzyl-N-(5-methyl-4-oxo-2,3,4,5-tetrahydropyrido[3,2-b][1,4]oxazepin-3-yl)-4H-1,2,4-triazole-3-carboxamide]
difference of VFDs or RFFDs between the 2 treatment arms in favor of RIPK1 Inhibitor (600 mg vs placebo, based on mean values, 28-day study period): 3
difference in mean days (without oxygen support, VFDs, RFFDs) in favor of RIPK1 Inhibitor group (600 mg vs placebo, up to 15-day treatment period): 1 days
SpO2/FiO2 ratio, raw data, Mean [1]: 298.0
SpO2/FiO2 ratio, raw data, Median [1]: 306.3
SpO2/FiO2 ratio, change from baseline, Mean [2]: 16.8
SpO2/FiO2 ratio, change from baseline, Median [2]: 3.3
SpO2/FiO2 ratio, raw data, Mean [2]: 314.8
SpO2/FiO2 ratio, raw data, Median [2]: 290.9
Change from baseline in SpO2/FiO2 ratio, point estimate (600 mg, Day 02, Efficacy population): 72.02
median change from baseline in SpO2/FiO2 ratio (600 mg, Day 2): 3.3
SpO2/FiO2 ratio, change from baseline, Mean [3]: 43.9
SpO2/FiO2 ratio, change from baseline, Median [3]: 30.9
SpO2/FiO2 ratio, raw data, Mean [3]: 337.9
SpO2/FiO2 ratio, raw data, Median [3]: 330.6
median change in SpO2/FiO2 ratio from baseline (600 mg, Day 3): 29.0
Change from baseline in SpO2/FiO2 ratio, point estimate (600 mg, Day 03, Efficacy population): 97.90
SpO2/FiO2 ratio, change from baseline, Mean [4]: 50.8
SpO2/FiO2 ratio, change from baseline, Median [4]: 47.3
SpO2/FiO2 ratio, raw data, Mean [4]: 340.4
SpO2/FiO2 ratio, raw data, Median [4]: 355.5
median change in SpO2/FiO2 ratio from baseline (600 mg, Day 4): 38.1
Change from baseline in SpO2/FiO2 ratio, point estimate (600 mg, Day 04, Efficacy population): 104.61
median change from baseline in SpO2/FiO2 ratio (600 mg, Day 4): 47.3
SpO2/FiO2 ratio, change from baseline, Mean [5]: 62.7
SpO2/FiO2 ratio, change from baseline, Median [5]: 69.6
SpO2/FiO2 ratio, raw data, Mean [5]: 350.5
SpO2/FiO2 ratio, raw data, Median [5]: 356.1
median change in SpO2/FiO2 ratio from baseline (600 mg, Day 5): 70.8
Change from baseline in SpO2/FiO2 ratio, point estimate (600 mg, Day 05, Efficacy population): 121.79
SpO2/FiO2 ratio, change from baseline, Mean [6]: 72.5
SpO2/FiO2 ratio, change from baseline, Median [6]: 73.9
SpO2/FiO2 ratio, raw data, Mean [6]: 358.7
SpO2/FiO2 ratio, raw data, Median [6]: 384.0
median change in SpO2/FiO2 ratio from baseline (600 mg, Day 6): 113.8
Change from baseline in SpO2/FiO2 ratio, point estimate (600 mg, Day 06, Efficacy population): 134.66
Change from baseline in SpO2/FiO2 ratio, adjusted treatment difference RIPK1 Inhibitor vs placebo [6]: 28.71
median change from baseline in SpO2/FiO2 ratio (600 mg, Day 6): 73.9
SpO2/FiO2 ratio, change from baseline, Mean [7]: 89.2
SpO2/FiO2 ratio, change from baseline, Median [7]: 124.1
SpO2/FiO2 ratio, raw data, Mean [7]: 367.1
SpO2/FiO2 ratio, raw data, Median [7]: 418.2
median change in SpO2/FiO2 ratio from baseline (600 mg, Day 7): 115.3
Change from baseline in SpO2/FiO2 ratio, point estimate (600 mg, Day 07, Efficacy population): 142.21
Change from baseline in SpO2/FiO2 ratio, adjusted treatment difference RIPK1 Inhibitor vs placebo [7]: 25.24
median change from baseline in SpO2/FiO2 ratio (600 mg, Day 7): 124.1
SpO2/FiO2 ratio, change from baseline, Mean [8]: 99.2
SpO2/FiO2 ratio, change from baseline, Median [8]: 131.4
SpO2/FiO2 ratio, raw data, Mean [8]: 371.5
SpO2/FiO2 ratio, raw data, Median [8]: 433.3
median change in SpO2/FiO2 ratio from baseline (600 mg, Day 8): 125.6
SpO2/FiO2 ratio, change from baseline, Mean [9]: 111.2
SpO2/FiO2 ratio, change from baseline, Median [9]: 150.0
SpO2/FiO2 ratio, raw data, Mean [9]: 381.8
SpO2/FiO2 ratio, raw data, Median [9]: 445.2
SpO2/FiO2 ratio, change from baseline, Mean [10]: 119.8
SpO2/FiO2 ratio, change from baseline, Median [10]: 133.8
SpO2/FiO2 ratio, raw data, Mean [10]: 386.7
SpO2/FiO2 ratio, raw data, Median [10]: 447.6
SpO2/FiO2 ratio, change from baseline, Mean [11]: 111.0
SpO2/FiO2 ratio, change from baseline, Median [11]: 153.7
SpO2/FiO2 ratio, raw data, Mean [11]: 373.2
SpO2/FiO2 ratio, raw data, Median [11]: 445.2
SpO2/FiO2 ratio, change from baseline, Mean [12]: 138.8
SpO2/FiO2 ratio, change from baseline, Median [12]: 190.3
SpO2/FiO2 ratio, raw data, Mean [12]: 401.0
SpO2/FiO2 ratio, raw data, Median [12]: 452.4
SpO2/FiO2 ratio, change from baseline, Mean [13]: 129.1
SpO2/FiO2 ratio, change from baseline, Median [13]: 195.1
SpO2/FiO2 ratio, raw data, Mean [13]: 389.5
SpO2/FiO2 ratio, raw data, Median [13]: 457.1
SpO2/FiO2 ratio, change from baseline, Mean [14]: 139.4
SpO2/FiO2 ratio, change from baseline, Median [14]: 192.7
SpO2/FiO2 ratio, raw data, Mean [14]: 414.8
SpO2/FiO2 ratio, raw data, Median [14]: 454.8
SpO2/FiO2 ratio, change from baseline, Mean [15]: 160.6
SpO2/FiO2 ratio, change from baseline, Median [15]: 195.1
SpO2/FiO2 ratio, raw data, Mean [15]: 436.0
SpO2/FiO2 ratio, raw data, Median [15]: 457.1
median change in SpO2/FiO2 ratio from baseline (600 mg, Day 15): 135.1
Change from baseline in SpO2/FiO2 ratio, point estimate [15]: 174.65
median change from baseline in SpO2/FiO2 ratio (600 mg, Day 15): 195.1
median time to improvement of oxygenation (SpO2 >=92% breathing room air) (600 mg, Kaplan-Meier, Efficacy population): 6 days
Number of Days without need for Oxygen Support and Alive, Mean [16]: 20.5 days
Number of Days without need for Oxygen Support and Alive, Median [16]: 23.0 days
Number of Respiratory Failure-Free Days and Alive, Mean [16]: 25.9 days
Number of Respiratory Failure-Free Days and Alive, Median [16]: 28.0 days
Number of Ventilator-Free Days and Alive, Mean [16]: 26.0 days
Number of Ventilator-Free Days and Alive, Median [16]: 28.0 days
